Laboratory results reported in article PMC9098913, “In vitro reconstitution of Escherichia coli divisome activation” (Nature Communications, 2022).
Where two headings read alike, the source gives them in different places.

Key:
FtsZ [1] = tested on: FtsZ;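 as to effect on FtsZ pattern reorganization dynamics: FtsZ filament patterns imaged by time-lapse TIRF microscopy, one frame per 2 s, with ATP and GTP, Pearson correlation of first frame versus later frames, monoexponential fit, slower decay means persistent structures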
Method: (§1) Subsequently, the chamber was washed 6x with reaction buffer, to remove bulk peptide. To visualize colocalization with either FtsZ or FtsA, either a mix of FtsA and Alexa488-FtsZ or Cy3-FtsA and FtsZ was added. […] The time-lapse videos were recorded for 10 min after the addition, with one frame per 2 s.
Time-lapse videos were first intensity-corrected and contrast-enhanced to avoid bleaching effects and simplify subsequent analysis. To remove contributions of X–Y drift, the videos were processed with the Linear Stack Alignment with SIFT plugin. Proper alignment was checked with the 3TP align plugin (J. A. Parker; Beth Israel Deaconess Medical Center, Boston). Subsequently, regions of interest (ROIs) in the center of the stacks were chosen for colocalization analysis. The Pearson’s correlation coefficient (PCC) was quantified with the Image CorrelationJ 1o plugin. To extract information about the relative ratio of FtsZ/FtsA molecules (slope of linear regression), we also used the Image CorrelationJ 1o plugin. As an output, the plugin provides a scatterplot of FtsZ vs FtsA intensities, to which we fitted a linear slope y=k⋅x+d , where k is the slope and d the offset. The slope was used as an estimate for the ratio of FtsA molecules below FtsZ filaments.

FtsZ [2] = tested on: FtsZ; remark: listed apart in the source;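 as to effect on FtsZ pattern reorganization dynamics: FtsZ filament patterns imaged by time-lapse TIRF microscopy, one frame per 2 s, with ATP and GTP, Pearson correlation of first frame versus later frames, monoexponential fit, slower decay means persistent structures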
Method: as §1
Treadmilling dynamics, were quantified using an automated image analysis protocol previously developed by our group. To visualize colocalization of the co-treadmilling FtsZ & FtsA filaments, we used dual-colour videos obtained at an acquisition rate of one frame per 2 s. The two channels were aligned using FIJI’s 3TP align plugin. Both channels were then subjected to the image subtraction protocol and colocalization was measured as described above.

FtsA/Z co-filaments = biological target: T1, FtsA/Z co-filaments (Escherichia coli, UniProt P0A9A6+P0ABH0, R286W); format: biochemical, E. coli; details: all concentrations of FtsA R286W
T1 construct: TwinStrep-SUMO (N, cleaved yes); made in house; host or cells: E. coli BL21
Method: By fitting an exponential function to the increase of the PCC with time, we were able to extract the corresponding recruitment rate (Fig. 2f, g).
as §1

FtsZ-FtsA WT filaments = biological target: T2, FtsZ-FtsA WT filaments (Escherichia coli, UniProt P0A9A6+P0ABH0); format: binding, E. coli; details: 0.2 µM FtsA WT, 1.25 µM FtsZ, […] Tris-NTA; p-value 0.03
T2 construct: TwinStrep-SUMO (N, cleaved yes); made in house; host or cells: E. coli BL21
Source text: Single molecule time lapses were acquired every 32 or 51 ms, with exposure times of 30 and 50 ms, respectively.
Single-molecule experiments with FtsNcytowere tracked using the TrackMate plugin from ImageJ[43]. Non-moving particles and short tracks (below 1 s) were filtered out and the data exported as.xml files. […] The packing coefficient is defined as the length of the trajectory in a short time window and the surface area that it occupies. […] This approach is adapted from Renner et al. and implemented here as an easy-to-use Python script. The packing coefficient is computed for each time point as:1 p=∑ii+n−1xi+1−xi^2−yi+1−yi^2/Si^2 Where xi,yi are the coordinates at time i, xi+1, yi+1 are the coordinates at time i+1, n is the length of the time window, and Si is the surface area of the convex hull of the trajectory segment between time points i and i+n. Periods of confinement are identified by setting a threshold corresponding to a certain confinement area size, since p scales with the size of the confinement area. Then it is possible to calculate the frequency and duration of confinement periods and to localize them in space. Each position will have a characteristic p, considering the behaviour of the following n positions. This approach overcomes the limitations of using MSD calculation, which overlooks transient confinement periods. […]

FtsZ [3] = details: either version of FtsA
Method: Additionally, the reaction chamber contained 4 mM ATP and 4 mM GTP, as well as a scavenging system to minimize photobleaching effects: 30 mM d-glucose, 0.050 mg ml^−1 Glucose Oxidase, 0.016 mg ml^−1 Catalase, 1 mM DTT and 1 mM Trolox. Prior addition of all components a corresponding buffer volume was removed from the chamber to obtain a total reaction volume of 100 µl. The dynamic protein pattern was monitored by time-lapse TIRF microscopy at one frame per 2 s and 50 ms exposure time.
To measure reorganization dynamics of FtsZ filaments, we used a temporal correlation analysis based on the Image CorrelationJ 1o plugin. We quantified the PCC between the first frame to subsequent frames with increasing time lag (∆t). The decrease in the PCC was plotted against ∆t to obtain autocorrelation curves. Slower decay indicates more persistent structures. The rates of decay were extracted by fitting monoexponential decay to the autocorrelation curves y=a⋅e^−b⋅t+k , where a is the starting point, b is the decay rate and k is the final offset. The half time of the monoexponential decay was calculated via the decay rate.

[4] = FtsA R286W, even at concentrations above 0.4 µM

T2 sequence (P0A9A6 whole entry): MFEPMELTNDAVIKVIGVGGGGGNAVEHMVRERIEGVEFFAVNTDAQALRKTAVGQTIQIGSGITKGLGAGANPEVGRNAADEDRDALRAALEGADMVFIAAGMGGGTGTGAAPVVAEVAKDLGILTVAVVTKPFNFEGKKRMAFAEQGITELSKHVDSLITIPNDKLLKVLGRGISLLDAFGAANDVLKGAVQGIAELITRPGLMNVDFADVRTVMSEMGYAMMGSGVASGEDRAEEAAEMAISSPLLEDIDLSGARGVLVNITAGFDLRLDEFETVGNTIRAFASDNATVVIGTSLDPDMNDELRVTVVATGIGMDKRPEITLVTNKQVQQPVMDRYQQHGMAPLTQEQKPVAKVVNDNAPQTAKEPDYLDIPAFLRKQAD
T2 sequence (P0ABH0 whole entry): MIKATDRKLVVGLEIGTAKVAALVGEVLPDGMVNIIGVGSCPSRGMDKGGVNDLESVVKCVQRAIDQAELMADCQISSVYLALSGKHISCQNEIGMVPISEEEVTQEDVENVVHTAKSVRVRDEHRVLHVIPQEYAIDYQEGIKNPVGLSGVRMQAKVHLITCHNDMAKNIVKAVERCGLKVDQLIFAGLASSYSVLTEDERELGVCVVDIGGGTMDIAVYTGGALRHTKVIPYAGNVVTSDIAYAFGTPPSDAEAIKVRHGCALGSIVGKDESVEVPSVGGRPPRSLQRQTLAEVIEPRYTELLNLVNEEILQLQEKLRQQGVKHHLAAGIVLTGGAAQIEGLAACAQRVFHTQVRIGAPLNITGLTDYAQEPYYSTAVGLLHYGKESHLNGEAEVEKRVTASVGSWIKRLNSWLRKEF
T1 sequence (P0A9A6 whole entry): as the sequence (P0A9A6 whole entry) above
T1 sequence (P0ABH0 whole entry R286W): as the sequence (P0ABH0 whole entry) above, with R286W counted along it

With CSCC[C@H](NC(=O)[C@@H](N)CS)C(=O)N[C@@H](C)C(=O)N[C@@H](CCC(N)=O)C(=O)N[C@@H](CCCNC(=N)N)C(=O)N[C@@H](CC(=O)O)C(=O)N[C@@H](Cc1ccc(O)cc1)C(=O)N[C@H](C(=O)N[C@@H](CCCNC(=N)N)C(=O)N[C@@H](CCCNC(=N)N)C(=O)N[C@@H](CO)C(=O)N[C@@H](CCC(N)=O)C(=O)N1CCC[C@H]1C(=O)N[C@@H](C)C(=O)N1CCC[C@H]1C(=O)N[C@@H](CO)C(=O)N[C@@H](CCCNC(=N)N)C(=O)N[C@@H](CCCNC(=N)N)C(=O)N[C@@H](CCCCN)C(=O)N[C@@H](CCCCN)C(=O)N[C@@H](CO)C(=O)N[C@H](C(=O)N[C@@H](CO)C(=O)N[C@@H](CCCNC(=N)N)C(=O)N[C@@H](CCCCN)C(=O)N[C@@H](CCCCN)C(=O)N[C@@H](CCC(N)=O)C(=O)N[C@@H](CCCNC(=N)N)C(=O)N[C@@H](CC(N)=O)C(=O)N[C@@H](CC(C)C)C(=O)N1CCC[C@H]1C(=O)N[C@@H](C)C(=O)N[C@H](C(=O)N[C@@H](Cc1c[nH]cn1)C(=O)N[C@@H](Cc1c[nH]cn1)C(=O)N[C@@H](Cc1c[nH]cn1)C(=O)N[C@@H](Cc1c[nH]cn1)C(=O)N[C@@H](Cc1c[nH]cn1)C(=O)N[C@@H](Cc1c[nH]cn1)C(=O)O)C(C)C)[C@@H](C)O)C(C)C [FtsNcyto] the “PCC FtsNcyto/FtsZ” value (FtsZ [1]; 0.4 µM FtsA R286W, […] Tris-NTA, 1.25 µM FtsZ, p-value 4.92 × 10^−4) was 0.70 ± 0.02, the “PCC FtsNcyto/FtsZ” value (FtsZ [1]; 0.4 µM FtsA WT, […] Tris-NTA, 1.25 µM FtsZ, p-value 4.92 × 10^−4) was 0.30 ± 0.05 and the “PCC FtsNcyto/FtsZ” value (FtsZ [1]; [4]) was greater than 0.6. For the same molecule, the “PCCdiff FtsNcyto/FtsZ” value (FtsZ [2]; 0.4 µM FtsA R286W, […] Tris-NTA, 1.25 µM FtsZ, p-value 3.79 × 10^−3) was 0.47 ± 0.05, the “PCCdiff FtsNcyto/FtsZ” value (FtsZ [2]; 0.4 µM FtsA WT, […] Tris-NTA, 1.25 µM FtsZ, p-value 3.79 × 10^−3) was 0.17 ± 0.04 and the “PCCdiff FtsNcyto/FtsZ” value (FtsZ [2]; [4]) was greater than 0.6. For the same molecule, the “FtsNcyto enrichment saturated within” value (FtsA/Z co-filaments) was no more than 1 min, the “frequency of transient confinement” value (FtsZ-FtsA WT filaments) was 57.99 ± 7.29% and the “effect on FtsZ pattern reorganization dynamics” value (FtsZ [3]) was “significantly slows down”.
